Experimental data from patent US12252555B2 (CHINA NATIONAL RESEARCH INSTITUTE OF FOOD & FERMENTATION …, priority 2018, dated 2025).
No end group written: not given here.

What was measured:
Type in all cases: biochemical
[1] = Identification of oxidation resistance by ABTS+ method (Trolox standard); design: Total antioxidant capacity: unit not given here; settings: for Total antioxidant capacity: ABTS+ method, sample 5 mg/mL, Trolox standard curve, 734 nm; for Increased multiple, compared with selenium-chelating pea oligopeptide: ratio of total antioxidant capacity
Excerpt: 9.2 Identification of Oxidation Resistance of Peptide Segment

[2] = Determination of reducing capacity (K3[Fe(CN)6]/FeCl3, absorbance at 700 nm); settings: absorbance at 700 nm about 1.6; FIG. 14
Description: (§1) [formula] 8.3 Determination of Reducing Capacity
Sample solutions in different concentrations are taken and evenly mixed with phosphate buffer (0.2 mol/L, pH 6.6) and K3[Fe(CN)6] solution with a mass concentration of 1% in a volume ratio of 1:1:1, stored in a water bath at 50° C. for 10 min, and quickly cooled with cold water. 1 volume of trichloroacetic acid solution with a mass concentration of 10% is added, shaken well quickly and thoroughly under a dark condition, and then 1 volume of reaction mixture is taken out, and added with 1 volume of distilled water and 0.2 volume of FeCl3 solution with a mass concentration of 0.1%, and after shaking well quickly and thoroughly under a dark condition, standing for 10 min, the absorbance is measured at 700 nm, and recorded as A3. The sodium selenite and the pea oligopeptide are used as raw material controls before chelation, and ascorbic acid is used as an overall control, the absorbance A3 is directly used as a parameter of the reducing capacity of the sample. Experiment of each group is repeated three times, and average values are obtained and standard deviations are calculated.

[3] = Determination of capacity to scavenge DPPH free radicals; settings: positive control; FIG. 10
Description: 8.1 Determination of Capacity to Scavenge DPPH Free Radicals
Samples in different concentrations are taken and mixed with DPPH-anhydrous ethanol solution ([…]) in a volume ratio of 1:1, and stored for 30 min under a dark condition, and the absorbance of the mixed solution is measured at 517 nm in ultraviolet-visible spectrum, and recorded as Ai. Correspondingly, sample solutions in different mass concentrations are evenly mixed with anhydrous ethanol solution in a volume ratio of 1:1, and stored for 30 min under a dark condition at room temperature, and the absorbance of the mixed solution is measured at 517 nm in ultraviolet-visible spectrum, and recorded as Aj. Distilled water is evenly mixed with DPPH-anhydrous ethanol solution ([…]) in a volume ratio of 1:1, and stored for 30 min under a dark condition at room temperature, and the absorbance is measured at 517 nm in ultraviolet-visible spectrum, and recorded as Ac. Experiment of each group is repeated three times, and average values are obtained and standard deviations are calculated. The sodium selenite and the pea oligopeptide are used as raw material controls before chelation, and ascorbic acid is used as a positive control, the scavenging rate of the sample on DPPH free radicals is calculated according to the following formula:
(§2) [formula] 8.2 Determination of Capacity to Scavenge OH Free Radicals

[4] = Determination of capacity to scavenge OH free radicals; settings: positive control; FIG. 12
Description: as §2
Sample solutions in different concentrations are taken and evenly mixed with FeSO4 ([…]) and salicylic acid-anhydrous ethanol solution ([…]) in a volume ratio of 1:2:2, the reaction is started with 1 volume of H2O2 solution ([…]), reacting in a water bath at 37° C. for 1 h, and the absorbance is measured at 510 nm in ultraviolet-visible spectrum, and recorded as A2. Correspondingly, the H2O2 solution ([…]) is replaced with 1 volume of water, and the ratio of remaining reagents remains unchanged, reacting in a water bath at 37° C. for 1 h, and the absorbance is measured at 510 nm in ultraviolet-visible spectrum, and recorded as A20. The sample solution is replaced with distilled water, and the ratio of remaining reagents remains unchanged, reacting in a water bath at 37° C. for 1 h, and the absorbance is measured at 510 nm, and recorded as A02. Experiment of each group is repeated three times, and average values are obtained and standard deviations are calculated. The sodium selenite and the pea oligopeptide are used as raw material controls before chelation, and ascorbic acid is used as a positive control, the scavenging rate of the sample on OH free radicals is calculated according to the following formula:
as §1

Row | Molecule | Total antioxidant capacity [1] | Increased multiple, compared with selenium-chelating pea oligopeptide [1] | Required concentration for absorbance value about 1.6 (reducing capacity) [2] | IC50 value of scavenging DPPH free radical [3] | IC50 value of scavenging OH free radical [4]
1 | HQMPKP [standard synthetic peptide segment identified in the selenium-chelating pea oligopeptide] | −9.53 |  |  |  | 
2 | Thr-Ser-Ser-Leu-Pro (TSSLP; listed as Pisum sativum) [standard synthetic peptide segment identified in the selenium-chelating pea oligopeptide] | 5.55 | 0.10 |  |  | 
3 | O=C1O[C@H]([C@@H](O)CO)C(O)=C1O [ascorbic acid] |  |  | 400 µg/mL | 4.85 ± 0.02 µg/mL | 1024.87 ± 5.96 µg/mL
4 | PPKIYP [standard synthetic peptide segment identified in the selenium-chelating pea oligopeptide] | 211.12 | 3.90 |  |  | 
5 | TGRGAP [standard synthetic peptide segment identified in the selenium-chelating pea oligopeptide] | 3.25 | 0.06 |  |  | 
